Values quoted from earlier work in US20100285081A1, “Bactericidal Nanofibers, and Methods of Use Thereof” (MASSACHUSETTS INSTITUTE OF TECHNOLOGY, priority 2007, published 2010).

What was measured:
E. coli = details: from Buxbaum et al. 2006
S. epidermidis = details: from Buxbaum et al. 2006

## [H]/N=C(\N/C(=N/[H])NCCCCCCNC(=N)NC(=N)Nc1ccc(Cl)cc1)Nc1ccc(Cl)cc1 [CHX, chlorhexidine]
E. coli
  minimum inhibitory concentration of CHX: 2 to 8 µg/mL
S. epidermidis
  minimum inhibitory concentration of CHX: 0.5 to 2 µg/mL
